The values that follow come from publication PMC8711653, “The Nature of Diamino Linker and Halogen Bonding Define Selectivity of Pyrrolopyrimidine-Based LIMK1 Inhibitors” (Frontiers in Chemistry, 2021).

The structures appear in SMILES notation. Like-named read-outs stand apart in the source and are kept apart here. Bounds are passed on as bounds.

The target of data set [1] is T1, LIMK1 (Homo sapiens, UniProt P53667).
T1 construct: purchased Promega
In words: 33P-ATP radiotracer assay, LIMK1 (Reaction Biology Corporation). Format: biochemical. To be noted: for IC50: 33P transfer from ATP to cofilin, 10 μM 33P-ATP, 1 μM cofilin, triplicate. The procedure:
(§1) To measure the selectivity against LIMK isoforms, the radiotracer assay measuring the transfer of ^33P from ATP to the substrate was used since there was no ADP-Glo™ kinase assay system available for LIMK2 (Table 2).
(§2) The radiotracer assay of LIMK1 and LIMK2 was performed by Reaction Biology Corporation. Compounds were tested in 10-dose IC50 mode with fivefold series dilution starting at 10 μM. Reactions were carried out at 10 μM ^33P-ATP, 1 μM cofilin substrate, and 50 nM LIMK1 (final concentration). Kinase activity is determined by the transfer or radioactive ^33P from ATP to cofilin substrate. Radiotracer assay is performed as triplicate.

Data set [2] addresses T1, LIMK1. Put plainly: LIMK1 ADP-Glo kinase assay (Promega). Type of data set: biochemical. Conditions: 0.1 μM compound. The procedure:
ADP-Glo kinase assay was performed in 96-well plate format using the Promega kinase assay system. LIMK1 (0.1 μg) and compounds (0.1–100 μM) were dissolved in kinase reaction buffer and incubated for 30 min at rt. The reaction was then initiated by the addition of ATP (10 μM, 5 μl) and incubation for 30 min at 30°C. The reaction was then quenched with addition of 25 μl of ADP-Glo reagent. Kinase detection reagent (50 μl) was added and incubated for 30 min prior to luminescence reading on the BMG Labtech PHERAstar FS plate reader. Kinase assay is performed as duplicate.

The target of data set [3] is T2, LIMK2 (Homo sapiens, UniProt P53671).
T2 construct: purchased Reaction Biology Corporation
T2 sequence (P53671 whole entry): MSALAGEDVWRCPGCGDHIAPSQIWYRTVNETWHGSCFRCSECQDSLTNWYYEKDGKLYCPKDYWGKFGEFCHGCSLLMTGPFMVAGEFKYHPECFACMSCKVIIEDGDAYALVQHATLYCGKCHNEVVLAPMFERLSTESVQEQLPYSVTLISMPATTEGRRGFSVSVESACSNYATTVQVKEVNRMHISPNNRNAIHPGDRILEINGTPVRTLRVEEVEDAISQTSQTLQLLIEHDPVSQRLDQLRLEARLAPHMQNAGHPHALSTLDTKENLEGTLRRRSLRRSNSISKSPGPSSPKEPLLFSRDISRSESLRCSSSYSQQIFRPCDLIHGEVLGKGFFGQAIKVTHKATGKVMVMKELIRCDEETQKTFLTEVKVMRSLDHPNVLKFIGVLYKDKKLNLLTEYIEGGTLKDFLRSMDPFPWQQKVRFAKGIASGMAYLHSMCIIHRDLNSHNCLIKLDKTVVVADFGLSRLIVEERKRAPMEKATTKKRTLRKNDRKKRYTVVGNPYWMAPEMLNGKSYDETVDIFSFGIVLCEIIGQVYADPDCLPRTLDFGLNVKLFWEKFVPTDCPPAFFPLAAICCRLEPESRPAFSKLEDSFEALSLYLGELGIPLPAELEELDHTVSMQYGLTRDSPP
Put plainly: 33P-ATP radiotracer assay, LIMK2 (Reaction Biology Corporation). Format: biochemical. The procedure: as §1, §2

Data set [4] has as its target T1, LIMK1. Conditions: Figure 1A, known inhibitors, ref Harrison et al., 2009, Boland et al., 2015, Yin et al., Yi et al., 2017; cited from earlier work.
The target of data set [5] is T2, LIMK2. To be noted: Figure 1A, known inhibitors, ref Harrison et al., 2009, Boland et al., 2015, Yin et al., Yi et al., 2017; cited from earlier work.
Another data set concerns C6 cells. Put plainly: Scratch (wound closure) assay, cell migration velocity. Conditions: live imaging 24 h, compared to untreated cell. Type of data set: cell-based. On the procedure: Cofilin, the substrate for LIMK1, regulates the actin skeleton and thus regulates cell migration ([Bravo-Cordero et al., 2013]). To understand the inhibitory effect of compounds 1 and 22–26 in vitro, scratch assays were performed. The artificial wound was created by “scratching” in the middle of the well with confluent C6 cells in culture. Live imaging was captured for 24 h to measure the distance of cell migration (Figure 3; Supplementary video).
The velocity of cell migration is measured using the C6 cell line in the 24-well plate. Cells were seeded at 100,000 cells/well. After 24 h, cells were washed with warm PBS and treated with the inhibitors. Directly following the treatment, cells were moved into a preheated stage-top incubator maintained at 37°C/5% CO2, using the ZEISS Axio Observer live cell microscope, fitted with an Axiocam 702 mono camera. Cells were imaged once every 10 min using a ×10 objective with phase contrast for a 24-h period. Cell migration was analysed using Fiji ImageJ (NIH) and Chemotaxis Migration Tool (ibidi).

Where [6] appears, read: Promega ADP-Glo kinase assay, Table 2, read-out: % LIMK1 inhibition at 0.1 μM.
Setting [7] is: 33P radiotracer assay, top concentration 10 μM.
Setting [8] is: Promega ADP-Glo kinase assay, Table 1, read-out: % LIMK1 inhibition at 0.1 μM.
Setting [9] is: 33P transfer from ATP to cofilin, 10 μM 33P-ATP, 1 μM cofilin, triplicate.
Setting [10] is: ADP-Glo assay, read-out: LIMK1 inhibitory activity at 0.1 μM.
The mark [11] stands for this setting: Promega ADP-Glo kinase assay, Table 1, read-out: % LIMK1 inhibition at 0.1 μM (dash = no inhibition).

T1 sequence (P53667 whole entry): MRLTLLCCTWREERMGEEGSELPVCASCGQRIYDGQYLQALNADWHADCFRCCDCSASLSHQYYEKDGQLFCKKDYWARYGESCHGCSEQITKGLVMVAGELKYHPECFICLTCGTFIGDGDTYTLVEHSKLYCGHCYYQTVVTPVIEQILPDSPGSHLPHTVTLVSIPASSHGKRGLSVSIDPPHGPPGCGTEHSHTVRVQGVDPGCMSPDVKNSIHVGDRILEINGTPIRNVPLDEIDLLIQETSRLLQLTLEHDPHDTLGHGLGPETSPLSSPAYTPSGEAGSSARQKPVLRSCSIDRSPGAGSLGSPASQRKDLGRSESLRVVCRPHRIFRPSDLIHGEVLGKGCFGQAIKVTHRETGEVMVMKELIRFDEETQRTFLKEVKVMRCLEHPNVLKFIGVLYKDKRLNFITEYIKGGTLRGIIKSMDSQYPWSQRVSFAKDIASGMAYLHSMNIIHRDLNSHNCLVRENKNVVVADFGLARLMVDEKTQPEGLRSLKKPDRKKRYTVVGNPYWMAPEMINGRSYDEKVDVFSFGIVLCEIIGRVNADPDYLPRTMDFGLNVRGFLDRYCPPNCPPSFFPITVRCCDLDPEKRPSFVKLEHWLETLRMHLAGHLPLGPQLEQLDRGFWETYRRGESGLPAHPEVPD

Consider `Cc1c[nH]c2ncnc(N[C@H]3CCCC[C@@H]3NC(=NC#N)Nc3cccc(I)c3)c12` [Compound 26, 2-Cyano-1-(3-iodophenyl)-3-((1S,2S)-2-((5-methyl-7H-pyrrolo[2,3-d]pyrimidin-4-yl)amino)cyclohexyl)guanidine], for which the melting point fell in the range of 128 to 129 °C. In addition, at LIMK1 [1], the IC50 came out at 8360 nM. Also, the inhibition at 0.1 µM on LIMK1 [2] (setting [6]) was 94.9 ± 0.8%. Also, at LIMK2 [3] (33P radiotracer assay), the “inhibition of LIMK2 (in words)” value was “no significant inhibition of LIMK2”. Also, the IC50 against LIMK2 [3] (setting [7]) was more than 10000 nM.

As to `Cc1c[nH]c2ncnc(N[C@H]3CC[C@H](NC(=NC#N)Nc4cccc(I)c4)CC3)c12` [Compound 19, 2-Cyano-1-(3-iodophenyl)-3-((1r,4r)-4-((5-methyl-7H-pyrrolo[2,3-d]pyrimidin-4-yl)amino)cyclohexyl)guanidine], the melting point lay in the range of 129 to 130 °C. In addition, at LIMK1 [2] (setting [8]), the inhibition at 0.1 µM came out at 66.6 ± 8.8%.

The compound `Cc1c[nH]c2ncnc(NCCCNC(=NC#N)Nc3cccc(I)c3)c12` [Compound 13, 2-Cyano-1-(3-iodophenyl)-3-(3-((5-methyl-7H-pyrrolo[2,3-d]pyrimidin-4-yl)amino)propyl)guanidine] returned a melting point of 91 to 93 °C. Besides, on LIMK1 [2] (setting [8]), the inhibition at 0.1 µM came out at 17.8 ± 7.1%.

Regarding `Cc1c[nH]c2ncnc(NCCCCNC(=NC#N)Nc3cccc(I)c3)c12` [Compound 16, 2-Cyano-1-(3-iodophenyl)-3-(4-((5-methyl-7H-pyrrolo[2,3-d]pyrimidin-4-yl)amino)butyl)guanidine], the melting point lay within 90 to 91 °C. For the same compound, the inhibition at 0.1 µM on LIMK1 [2] (setting [8]) came to 41 ± 2.5%.

`Cc1c[nH]c2ncnc(N[C@@H]3CCCC[C@H]3NC(=NC#N)Nc3cccc(Br)c3)c12` [Compound 23, 1-(3-Bromophenyl)-2-cyano-3-((1R,2R)-2-((5-methyl-7H-pyrrolo[2,3-d]pyrimidin-4-yl)amino)cyclohexyl)guanidine] gave a melting point of 127 to 128 °C. This compound also registered a half-inhibitory concentration (IC50) against LIMK1 [1] of 2830 nM. The inhibition at 0.1 µM at LIMK1 [2] (setting [6]) is 96.7 ± 0.1%. This compound also showed an IC50 at LIMK2 [3] (setting [9]) of 2650 nM.

In turn, `Cc1c[nH]c2ncnc(NCCCNC(=NC#N)Nc3cccc(Cl)c3)c12` [Compound 11, 1-(3-Chlorophenyl)-2-cyano-3-(3-((5-methyl-7H-pyrrolo[2,3-d]pyrimidin-4-yl)amino)propyl)guanidine] showed a melting point of 88 to 90 °C. On LIMK1 [2] (setting [8]), the inhibition at 0.1 µM came to 15 ± 10.7%.

In turn, `Cc1c[nH]c2ncnc(N[C@H]3CC[C@H](NC(=NC#N)Nc4cccc(Br)c4)CC3)c12` [Compound 18, 1-(3-Bromophenyl)-2-cyano-3-((1r,4r)-4-((5-methyl-7H-pyrrolo[2,3-d]pyrimidin-4-yl)amino)cyclohexyl)guanidine] displayed a melting point of 127 to 128 °C. In addition, the inhibition at 0.1 µM on LIMK1 [2] (setting [10]) turned out to be 69%. Moreover, on LIMK1 [2] (setting [8]), the inhibition at 0.1 µM was found to be 69.2 ± 1.7%.

The compound `Cc1c[nH]c2ncnc(NCCCCNC(=NC#N)Nc3cccc(Br)c3)c12` [Compound 15, 1-(3-Bromophenyl)-2-cyano-3-(4-((5-methyl-7H-pyrrolo[2,3-d]pyrimidin-4-yl)amino)butyl)guanidine] showed a melting point of 97 to 98 °C. In addition, the inhibition at 0.1 µM on LIMK1 [2] (setting [10]) stood at 47%. Further, on LIMK1 [2] (setting [8]), the inhibition at 0.1 µM was 47.1 ± 1.6%.

The compound `Cc1c[nH]c2ncnc(NCCNC(=NC#N)Nc3cccc(I)c3)c12` [Compound 10, 2-Cyano-1-(3-iodophenyl)-3-(2-((5-methyl-7H-pyrrolo[2,3-d]pyrimidin-4-yl)amino)ethyl)guanidine] showed a melting point of 88 to 89 °C. Further, the inhibition at 0.1 µM on LIMK1 [2] (setting [8]) came to 17.8 ± 7.1%.

The compound `Cc1c[nH]c2ncnc(NCCCNC(=NC#N)Nc3cccc(Br)c3)c12` [Compound 12, 1-(3-Bromophenyl)-2-cyano-3-(3-((5-methyl-7H-pyrrolo[2,3-d]pyrimidin-4-yl)amino)propyl)guanidine] had a melting point of 88 to 89 °C. For the same compound, the “LIMK1 inhibitory activity at 0.1 μM (in words)” value (“LIMK1 inhibitory activity” for short) on LIMK1 [2] (ADP-Glo assay) was “abolished the inhibitory activity”. Also, the inhibition at 0.1 µM at LIMK1 [2] (setting [11]) is less than 0%.

With `CN(C)C(=O)Oc1cccc(NC(=O)C2(CN)CCN(c3ncnc4[nH]cc(Cl)c34)CC2)c1` [Compound 4], the IC50 on LIMK1 [4] is 24 nM; on LIMK2 [5], 1.6 nM.

On to `Cc1c[nH]c2ncnc(N3CCN(C(=NC#N)Nc4cccc(I)c4)[C@@H](C)C3)c12` [Compound 22, (S)-N′-Cyano-N-(3-iodophenyl)-2-methyl-4-(5-methyl-7H-pyrrolo[2,3-d]pyrimidin-4-yl)piperazine-1-carboximidamide], for which the melting point was in the range of 130 to 131 °C. Half-maximal inhibition at LIMK1 [1] (IC50) was put at 0.13 ± 0.01 nM. At LIMK1 [2] (setting [6]), the inhibition at 0.1 µM turned out to be 95.5 ± 0.4%. On LIMK2 [3] (setting [9]), the midpoint of inhibition, the IC50, lay at 0.47 ± 0.01 nM. The cell migration velocity entry with C6 cells is recorded as “lowered the migration even further”.

Consider `Cc1c[nH]c2ncnc(NCCCCNC(=NC#N)Nc3cccc(Cl)c3)c12` [Compound 14, 1-(3-Chlorophenyl)-2-cyano-3-(4-((5-methyl-7H-pyrrolo[2,3-d]pyrimidin-4-yl)amino)butyl)guanidine], for which the melting point fell in the range of 90 to 91 °C. For the same compound, the “LIMK1 inhibitory activity” value at LIMK1 [2] (ADP-Glo assay) is “completely abolished inhibitory activity”. Further, the inhibition at 0.1 µM at LIMK1 [2] (setting [11]) is less than 0%.

Take `Cc1c[nH]c2ncnc(NCCNC(=NC#N)Nc3cccc(Br)c3)c12` [Compound 9, 1-(3-Bromophenyl)-2-cyano-3-(2-((5-methyl-7H-pyrrolo[2,3-d]pyrimidin-4-yl)amino)ethyl)guanidine]: the melting point was 86 to 88 °C. Further, the inhibition at 0.1 µM at LIMK1 [2] (setting [8]) was found to be 29.4 ± 10.3%.

For the compound `Cc1c[nH]c2ncnc(N3CCN(/C(=N/C#N)Nc4cccc(Br)c4)[C@@H](C)C3)c12` [Compound 1, reference compound], the values for the IC50 on LIMK1 [1] and on LIMK2 [3] (setting [9]) were 0.28 ± 0.01 nM and 0.86 ± 0.05 nM, respectively. In addition, on LIMK1 [2] (setting [8]), the inhibition at 0.1 µM stood at 94.3 ± 0.2%. The cell migration velocity entry in the data set with C6 cells is listed as “reduced the cell velocity by twofold”.

Compound `Cc1c[nH]c2ncnc(N[C@@H]3CCCC[C@H]3NC(=NC#N)Nc3cccc(I)c3)c12` [Compound 24, 2-Cyano-1-(3-iodophenyl)-3-((1R,2R)-2-((5-methyl-7H-pyrrolo[2,3-d]pyrimidin-4-yl)amino)cyclohexyl)guanidine] yielded a melting point of 128 to 129 °C. The same compound came in with an IC50 on LIMK1 [1] of 5080 nM. For the same compound, the inhibition at 0.1 µM at LIMK1 [2] (setting [6]) came out at 93.2 ± 1.2%. This compound also registered an IC50 against LIMK2 [3] (setting [9]) of 3380 nM.

`Cc1c[nH]c2ncnc(N[C@H]3CCCC[C@@H]3NC(=NC#N)Nc3cccc(Br)c3)c12` [Compound 25, 1-(3-Bromophenyl)-2-cyano-3-((1S,2S)-2-((5-methyl-7H-pyrrolo[2,3-d]pyrimidin-4-yl)amino)cyclohexyl)guanidine] showed a melting point of 127 to 128 °C. In addition, the inhibition at 10 µM at LIMK1 [1] (10 μM compound, 33P radiotracer assay) stood at 47%. The inhibition at 0.1 µM at LIMK1 [2] (setting [6]) was found to be 96 ± 0.5%. Moreover, at LIMK2 [3] (33P radiotracer assay), the “inhibition of LIMK2 (in words)” value is “no significant inhibition of LIMK2”. The half-maximal inhibitory concentration (IC50) on LIMK2 [3] (setting [7]) is more than 10000 nM.

On to `Cc1c[nH]c2ncnc(NCCNC(=NC#N)Nc3cccc(Cl)c3)c12` [Compound 8, 1-(3-Chlorophenyl)-2-cyano-3-(2-((5-methyl-7H-pyrrolo[2,3-d]pyrimidin-4-yl)amino)ethyl)guanidine], for which the melting point is 87 to 88 °C. Moreover, the “LIMK1 inhibitory activity” value on LIMK1 [2] (ADP-Glo assay) is given as “completely abolished inhibitory activity”. Further, on LIMK1 [2] (setting [11]), the inhibition at 0.1 µM is less than 0%.

Consider `Cc1c[nH]c2ncnc(N[C@H]3CC[C@H](NC(=NC#N)Nc4cccc(Cl)c4)CC3)c12` [Compound 17, 1-(3-Chlorophenyl)-2-cyano-3-((1r,4r)-4-((5-methyl-7H-pyrrolo[2,3-d]pyrimidin-4-yl)amino)cyclohexyl)guanidine], for which the melting point lay within 120 to 122 °C. In addition, the inhibition at 0.1 µM at LIMK1 [2] (setting [10]) was found to be 42%. Also, the inhibition at 0.1 µM at LIMK1 [2] (setting [8]) amounted to 41.7 ± 0.1%.
